Assay results: ChEMBL document CHEMBL5465560, “Selectivity Literature for EUbOPEN Chemogenomic Library” (2024)

Key:
[1] = test system: T1, Receptor-type tyrosine-protein kinase FLT3 (Homo sapiens), P36888 [D835Y]; assay: Selectivity interaction (KinomeScan (DiscoverX)) EUB0000311b FLT3; conditions: at 1 µM
T1 sequence (whole entry): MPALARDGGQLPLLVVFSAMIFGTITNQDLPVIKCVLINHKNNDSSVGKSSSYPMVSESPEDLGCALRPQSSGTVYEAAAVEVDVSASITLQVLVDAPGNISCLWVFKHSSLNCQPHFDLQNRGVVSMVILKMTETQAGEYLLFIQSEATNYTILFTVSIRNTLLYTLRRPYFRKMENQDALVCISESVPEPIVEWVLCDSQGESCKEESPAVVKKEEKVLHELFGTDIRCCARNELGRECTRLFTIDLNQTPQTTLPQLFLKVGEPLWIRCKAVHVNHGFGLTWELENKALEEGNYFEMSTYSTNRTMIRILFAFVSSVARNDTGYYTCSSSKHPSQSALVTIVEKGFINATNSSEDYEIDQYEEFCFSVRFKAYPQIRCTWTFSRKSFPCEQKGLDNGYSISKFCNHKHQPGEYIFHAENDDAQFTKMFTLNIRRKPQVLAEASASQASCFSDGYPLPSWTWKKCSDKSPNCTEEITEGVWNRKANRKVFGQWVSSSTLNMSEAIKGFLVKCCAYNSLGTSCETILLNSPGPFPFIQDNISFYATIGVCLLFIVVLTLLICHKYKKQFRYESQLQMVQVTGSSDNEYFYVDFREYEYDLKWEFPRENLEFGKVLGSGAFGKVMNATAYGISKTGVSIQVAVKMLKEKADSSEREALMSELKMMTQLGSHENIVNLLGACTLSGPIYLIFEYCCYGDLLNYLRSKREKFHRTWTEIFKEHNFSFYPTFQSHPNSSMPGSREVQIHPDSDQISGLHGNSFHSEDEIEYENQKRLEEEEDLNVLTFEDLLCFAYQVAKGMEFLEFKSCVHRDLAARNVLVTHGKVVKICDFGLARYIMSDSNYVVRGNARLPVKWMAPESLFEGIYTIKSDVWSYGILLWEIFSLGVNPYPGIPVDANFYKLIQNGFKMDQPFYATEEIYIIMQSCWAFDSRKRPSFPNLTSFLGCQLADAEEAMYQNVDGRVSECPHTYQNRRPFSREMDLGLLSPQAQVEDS

[2] = target: SRSF protein kinase 2 (Homo sapiens) (UniProt P78362); assay: Selectivity interaction (KinomeScan (DiscoverX)) EUB0001049a SRPK2; conditions: at 1 µM
SRSF protein kinase 2 (Homo sapiens), sequence (P78362 whole entry, looked up): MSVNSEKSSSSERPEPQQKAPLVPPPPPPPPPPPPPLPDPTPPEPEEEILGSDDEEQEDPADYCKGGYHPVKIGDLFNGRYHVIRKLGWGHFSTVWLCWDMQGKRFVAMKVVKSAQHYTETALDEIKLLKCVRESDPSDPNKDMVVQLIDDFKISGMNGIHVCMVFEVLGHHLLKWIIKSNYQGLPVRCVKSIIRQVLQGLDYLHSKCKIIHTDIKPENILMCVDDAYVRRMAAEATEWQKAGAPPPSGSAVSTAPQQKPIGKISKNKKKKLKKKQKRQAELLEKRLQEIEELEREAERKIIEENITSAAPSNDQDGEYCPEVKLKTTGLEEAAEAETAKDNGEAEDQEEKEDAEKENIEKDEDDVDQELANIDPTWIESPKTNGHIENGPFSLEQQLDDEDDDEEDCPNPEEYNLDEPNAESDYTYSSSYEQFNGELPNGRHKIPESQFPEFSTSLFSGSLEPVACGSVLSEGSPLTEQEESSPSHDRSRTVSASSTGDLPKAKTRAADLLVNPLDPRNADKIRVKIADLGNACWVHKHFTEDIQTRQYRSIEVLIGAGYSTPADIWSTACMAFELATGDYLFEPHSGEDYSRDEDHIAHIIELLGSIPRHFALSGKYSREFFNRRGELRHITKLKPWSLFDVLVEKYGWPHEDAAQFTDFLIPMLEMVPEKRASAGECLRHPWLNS

Activated CDC42 kinase 1 = Activated CDC42 kinase 1 (Homo sapiens, UniProt Q07912); assay: Selectivity interaction (KinomeScan (DiscoverX)) EUB0001049a TNK2; conditions: at 1 µM
Activated CDC42 kinase 1, sequence (Q07912 whole entry, looked up): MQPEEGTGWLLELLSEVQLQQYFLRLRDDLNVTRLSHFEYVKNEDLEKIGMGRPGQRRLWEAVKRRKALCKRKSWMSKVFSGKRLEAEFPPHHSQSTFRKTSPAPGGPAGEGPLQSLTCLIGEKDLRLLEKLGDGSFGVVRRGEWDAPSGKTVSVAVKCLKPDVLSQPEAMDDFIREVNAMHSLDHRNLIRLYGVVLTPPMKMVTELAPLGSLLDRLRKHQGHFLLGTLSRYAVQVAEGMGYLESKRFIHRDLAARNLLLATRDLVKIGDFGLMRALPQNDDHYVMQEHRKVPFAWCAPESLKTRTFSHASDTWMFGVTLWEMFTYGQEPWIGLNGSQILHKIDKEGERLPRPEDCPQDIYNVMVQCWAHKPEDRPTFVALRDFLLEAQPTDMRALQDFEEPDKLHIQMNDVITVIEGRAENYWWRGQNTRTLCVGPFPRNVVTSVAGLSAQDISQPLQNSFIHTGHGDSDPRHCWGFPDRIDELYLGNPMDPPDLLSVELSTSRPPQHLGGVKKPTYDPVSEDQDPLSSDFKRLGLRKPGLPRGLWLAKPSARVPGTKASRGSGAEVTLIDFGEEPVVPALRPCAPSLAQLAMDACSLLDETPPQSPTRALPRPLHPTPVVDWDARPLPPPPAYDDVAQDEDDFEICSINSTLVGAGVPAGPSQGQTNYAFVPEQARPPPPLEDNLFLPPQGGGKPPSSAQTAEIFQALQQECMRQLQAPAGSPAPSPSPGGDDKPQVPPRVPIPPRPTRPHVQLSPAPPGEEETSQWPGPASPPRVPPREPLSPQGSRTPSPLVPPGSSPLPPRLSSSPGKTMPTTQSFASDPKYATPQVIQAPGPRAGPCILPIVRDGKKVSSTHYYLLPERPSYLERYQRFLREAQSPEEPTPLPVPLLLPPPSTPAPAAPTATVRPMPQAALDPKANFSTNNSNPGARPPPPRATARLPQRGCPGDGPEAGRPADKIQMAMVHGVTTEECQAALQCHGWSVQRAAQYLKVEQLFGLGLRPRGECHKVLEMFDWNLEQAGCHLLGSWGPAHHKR

[3] = target: T2, Aurora kinase A (Homo sapiens) (UniProt O14965); assay: Selectivity interaction (KinomeScan (DiscoverX)) EUB0000666a STK6; conditions: at 10 µM
T2 sequence (whole entry): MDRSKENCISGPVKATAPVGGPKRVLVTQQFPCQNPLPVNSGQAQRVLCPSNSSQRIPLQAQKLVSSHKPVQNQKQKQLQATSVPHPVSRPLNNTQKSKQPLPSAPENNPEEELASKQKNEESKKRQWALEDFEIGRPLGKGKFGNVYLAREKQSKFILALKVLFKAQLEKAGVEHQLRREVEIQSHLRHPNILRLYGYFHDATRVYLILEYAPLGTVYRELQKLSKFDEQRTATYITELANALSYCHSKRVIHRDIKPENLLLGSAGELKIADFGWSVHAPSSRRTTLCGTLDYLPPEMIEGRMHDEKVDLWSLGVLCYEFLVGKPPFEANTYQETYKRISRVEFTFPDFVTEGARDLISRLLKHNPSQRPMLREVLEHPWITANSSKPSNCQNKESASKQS

[4] = target: Casein kinase II subunit alpha (Homo sapiens, UniProt P68400); assay: Selectivity interaction (KinomeScan (DiscoverX)) EUB0000666a CSNK2A1; conditions: at 10 µM
Casein kinase II subunit alpha, sequence (P68400 whole entry, looked up): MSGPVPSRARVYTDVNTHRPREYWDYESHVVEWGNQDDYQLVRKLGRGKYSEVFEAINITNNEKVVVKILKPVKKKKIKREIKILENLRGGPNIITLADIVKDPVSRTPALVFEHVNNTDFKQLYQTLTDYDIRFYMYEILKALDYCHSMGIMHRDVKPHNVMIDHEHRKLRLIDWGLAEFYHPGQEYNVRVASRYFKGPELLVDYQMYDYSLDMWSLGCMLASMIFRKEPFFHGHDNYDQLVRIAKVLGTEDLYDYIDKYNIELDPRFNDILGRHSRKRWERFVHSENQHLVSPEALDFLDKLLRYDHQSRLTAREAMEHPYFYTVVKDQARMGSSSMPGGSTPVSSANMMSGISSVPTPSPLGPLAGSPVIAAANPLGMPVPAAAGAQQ

[5] = target: Death-associated protein kinase 2 (Homo sapiens) (UniProt Q9UIK4); conditions: at 10 µM
Death-associated protein kinase 2 (Homo sapiens), sequence (Q9UIK4 whole entry, looked up): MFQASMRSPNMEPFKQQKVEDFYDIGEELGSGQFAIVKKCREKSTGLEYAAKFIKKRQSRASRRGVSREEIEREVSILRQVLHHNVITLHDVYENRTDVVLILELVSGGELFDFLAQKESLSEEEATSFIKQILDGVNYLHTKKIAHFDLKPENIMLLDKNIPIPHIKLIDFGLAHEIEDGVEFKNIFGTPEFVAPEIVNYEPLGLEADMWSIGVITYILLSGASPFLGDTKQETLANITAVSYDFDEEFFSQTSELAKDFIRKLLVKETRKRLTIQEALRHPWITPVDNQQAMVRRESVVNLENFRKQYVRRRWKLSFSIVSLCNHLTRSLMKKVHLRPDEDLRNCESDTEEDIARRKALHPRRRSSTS

Focal adhesion kinase 1 = Focal adhesion kinase 1 (Homo sapiens, UniProt Q05397); assay: Selectivity interaction (ActivX KiNativ screen (kinase selectivity in THP-1 cell lysates)) EUB0000639a PTK2; type: subcellular; conditions: lysate, at 0.04 µM
Focal adhesion kinase 1, sequence (Q05397 2-1052 limits assumed): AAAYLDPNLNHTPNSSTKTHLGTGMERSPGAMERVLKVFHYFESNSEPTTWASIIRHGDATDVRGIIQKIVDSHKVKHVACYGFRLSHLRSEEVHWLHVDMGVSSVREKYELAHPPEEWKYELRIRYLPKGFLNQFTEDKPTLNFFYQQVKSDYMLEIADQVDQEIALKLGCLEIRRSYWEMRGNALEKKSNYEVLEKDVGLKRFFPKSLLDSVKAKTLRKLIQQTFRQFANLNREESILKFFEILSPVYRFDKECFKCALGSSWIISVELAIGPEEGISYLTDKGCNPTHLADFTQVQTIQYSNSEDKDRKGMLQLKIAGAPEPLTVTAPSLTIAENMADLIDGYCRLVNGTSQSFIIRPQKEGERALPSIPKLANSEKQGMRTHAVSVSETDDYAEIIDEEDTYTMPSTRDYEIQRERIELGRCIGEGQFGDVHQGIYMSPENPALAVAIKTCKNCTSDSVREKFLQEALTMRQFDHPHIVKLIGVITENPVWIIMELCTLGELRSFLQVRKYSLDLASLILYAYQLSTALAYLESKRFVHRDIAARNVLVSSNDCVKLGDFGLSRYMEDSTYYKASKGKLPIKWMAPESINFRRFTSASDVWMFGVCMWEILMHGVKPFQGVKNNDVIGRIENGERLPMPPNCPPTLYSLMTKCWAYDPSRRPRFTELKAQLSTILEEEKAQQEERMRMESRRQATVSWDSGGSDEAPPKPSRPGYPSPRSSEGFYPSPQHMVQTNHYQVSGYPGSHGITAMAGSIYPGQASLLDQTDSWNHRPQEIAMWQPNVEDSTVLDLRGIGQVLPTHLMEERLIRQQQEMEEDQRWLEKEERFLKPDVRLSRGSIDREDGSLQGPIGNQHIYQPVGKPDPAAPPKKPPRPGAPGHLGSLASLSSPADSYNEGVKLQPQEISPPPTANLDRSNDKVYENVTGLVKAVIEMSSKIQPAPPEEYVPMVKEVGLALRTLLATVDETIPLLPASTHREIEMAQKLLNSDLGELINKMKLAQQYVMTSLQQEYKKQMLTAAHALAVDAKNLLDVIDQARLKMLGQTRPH

[6] = target: T3, Dual specificity mitogen-activated protein kinase kinase 7 (Homo sapiens) (UniProt O14733); assay: Selectivity interaction (KinomeScan (DiscoverX)) EUB0001619a MAP2K7; conditions: at 1 µM
T3 sequence (whole entry): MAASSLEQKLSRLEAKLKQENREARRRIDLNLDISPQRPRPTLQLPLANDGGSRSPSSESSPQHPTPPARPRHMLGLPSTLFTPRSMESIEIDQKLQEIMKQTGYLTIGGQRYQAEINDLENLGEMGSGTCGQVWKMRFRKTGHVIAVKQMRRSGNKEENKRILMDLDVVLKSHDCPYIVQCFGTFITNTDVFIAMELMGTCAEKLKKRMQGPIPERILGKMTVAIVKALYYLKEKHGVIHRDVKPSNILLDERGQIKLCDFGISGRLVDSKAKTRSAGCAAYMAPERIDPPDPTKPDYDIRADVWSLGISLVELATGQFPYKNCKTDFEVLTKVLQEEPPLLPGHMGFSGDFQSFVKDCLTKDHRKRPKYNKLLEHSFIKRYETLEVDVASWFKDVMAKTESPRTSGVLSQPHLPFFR

**Q.** `CCc1ccccc1C(=O)Nc1n[nH]c2c(C)c(F)c(C3C(C#N)=C(C)N(C)C(C)=C3C#N)cc12` [BAY-3827] was tested. Which % of control [1] did it give?
**A.** The % of control was 2.5%.

**Q.** Which % of control [2] does the source give for `COc1cc(Nc2nc(C)cc(-c3cnn4nc(OC)ccc34)n2)cc(C(F)(F)F)c1` here?
**A.** The % of control was 100%.

**Q.** What about the % of control (Activated CDC42 kinase 1) of the same compound?
**A.** The % of control was 77%.

**Q.** Which results are given for `O=C(NOC[C@H](O)CO)c1ccc(F)c(F)c1Nc1ccc(I)cc1F`?
**A.** % of control [3]: 100%; % of control [4]: 77%

**Q.** How did the % of control [5] turn out when `CCN(CC)CCCCNc1ncc2cc(-c3cc(OC)cc(OC)c3)c(NC(=O)NC(C)(C)C)nc2n1` was run?
**A.** Its % of control is 100%.

**Q.** `CC[C@@H]1[C@H](F)C(=O)N[C@@H]1COc1nccc2cc(C(N)=O)c(OC)cc12` [ZIMLOVISERTIB] was tested. Which % of inhibition (Focal adhesion kinase 1) did it give?
**A.** The % of inhibition was -20.7%.

**Q.** How did the % of control [6] turn out when `N#Cc1cccc(-c2c[nH]c3ncnc(N4CCOCC4)c23)c1` was run?
**A.** Its % of control is 80%.
